From ChEMBL document CHEMBL1148225, “Discovery and SAR of trisubstituted thiazolidinones as CCR4 antagonists” (Bioorg Med Chem Lett, 2004)
pIC50: −log10 of the molar value.

Biological target: T1, C-C chemokine receptor type 4 (Homo sapiens, UniProt P51679)
T1 sequence (P51679 whole entry): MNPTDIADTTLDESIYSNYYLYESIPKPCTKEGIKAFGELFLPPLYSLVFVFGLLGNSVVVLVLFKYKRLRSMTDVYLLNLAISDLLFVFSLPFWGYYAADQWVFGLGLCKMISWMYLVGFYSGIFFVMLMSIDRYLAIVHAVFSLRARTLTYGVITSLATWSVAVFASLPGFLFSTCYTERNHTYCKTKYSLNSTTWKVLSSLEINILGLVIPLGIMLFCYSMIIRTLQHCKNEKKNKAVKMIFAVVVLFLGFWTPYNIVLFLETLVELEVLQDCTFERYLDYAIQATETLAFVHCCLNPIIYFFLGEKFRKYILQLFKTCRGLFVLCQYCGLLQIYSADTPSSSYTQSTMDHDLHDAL
Assay: Inhibition of [125I]MDC binding to recombinant human C-C chemokine receptor type 4 (CCR4) expressed in murine pre-B cells
Format: cell-based

Compound | pIC50
O=C(C[C@H]1S[C@H](c2cc(Cl)ccc2Cl)N(CC(=O)NCCCN2CCOCC2)C1=O)NCc1cccc2ccccc12 | 4.92
Cc1cccc(CNC(=O)C[C@H]2S[C@H](c3ccc(Cl)cc3Cl)N(CC(=O)NCCCN3CCOCC3)C2=O)c1 | 5.64
O=C(C[C@H]1S[C@H](c2ccco2)N(CC(=O)NCCCN2CCOCC2)C1=O)NCc1cccc2ccccc12 | 4.54
O=C(C[C@H]1S[C@H](c2ccc(Cl)cc2Cl)N(CCCN2CCOCC2)C1=O)NCc1cccc2ccccc12 | 4.48
O=C(C[C@H]1S[C@H](c2ccc(Cl)cc2Cl)N(CC(=O)N2CCNCC2)C1=O)NCc1cccc2ccccc12 | 5.85
O=C(C[C@H]1S[C@H](c2ccccc2Cl)N(CC(=O)NCCCN2CCOCC2)C1=O)NCc1cccc2ccccc12 | 4.96
O=C(C[C@H]1S[C@H](c2ccsc2)N(CC(=O)NCCCN2CCOCC2)C1=O)NCc1cccc2ccccc12 | 4.18
NCCNC(=O)CCN1C(=O)[C@@H](CC(=O)NCc2cccc3ccccc23)S[C@@H]1c1ccc(Cl)cc1Cl | 5.05
Cc1ccc(CNC(=O)C[C@H]2S[C@H](c3ccc(Cl)cc3Cl)N(CC(=O)NCCCN3CCOCC3)C2=O)n1C | 5.60
COc1ccc(CNC(=O)C[C@H]2S[C@H](c3ccc(Cl)cc3Cl)N(CC(=O)NCCCN3CCOCC3)C2=O)c(OC)c1OC | 4.96
O=C(C[C@H]1S[C@H](c2c(Cl)cccc2Cl)N(CC(=O)NCCCN2CCOCC2)C1=O)NCc1cccc2ccccc12 | 5.10
O=C(C[C@H]1S[C@H](c2cccc(Cl)c2)N(CC(=O)NCCCN2CCOCC2)C1=O)NCc1cccc2ccccc12 | 5.15
O=C(C[C@H]1S[C@H](c2ccncc2)N(CC(=O)NCCCN2CCOCC2)C1=O)NCc1cccc2ccccc12 | 4.47
CC(C)(C)CCNC(=O)C[C@H]1S[C@H](c2ccc(Cl)cc2Cl)N(CC(=O)NCCCN2CCOCC2)C1=O | 4.68
O=C(C[C@H]1S[C@H](c2ccoc2)N(CC(=O)NCCCN2CCOCC2)C1=O)NCc1cccc2ccccc12 | 4.00
CN1CCC(NC(=O)CN2C(=O)[C@@H](CC(=O)NCc3cccc4ccccc34)S[C@@H]2c2ccc(Cl)cc2Cl)CC1 | 5.10
O=C(C[C@H]1S[C@@H](c2ccc(Cl)cc2)N(CC(=O)NCCCN2CCOCC2)C1=O)NCc1cccc2ccccc12 | ~5.22
CN1CCN(C(=O)CN2C(=O)[C@@H](CC(=O)NCc3cccc4ccccc34)S[C@@H]2c2ccc(Cl)cc2Cl)CC1 | 4.70
O=C(C[C@H]1S[C@H](C2CCCCC2)N(CC(=O)NCCCN2CCOCC2)C1=O)NCc1cccc2ccccc12 | 4.00
O=C(C[C@H]1S[C@H](c2ccc(Cl)cc2Cl)N(CCN2CCOCC2)C1=O)NCc1cccc2ccccc12 | 5.05

These reach a higher pIC50. Values come first.

pIC50 | Compound
6.00 | O=C(C[C@H]1S[C@H](c2ccc(Cl)cc2Cl)N(CC(=O)NCCCN2CCOCC2)C1=O)NCc1ccc2[nH]ccc2c1
6.16 | O=C(C[C@H]1S[C@H](c2ccc(Cl)cc2Cl)N(CC(=O)NCCCN2CCOCC2)C1=O)NCc1cccc2ccccc12
6.24 | CN1CCN(CCCNC(=O)CN2C(=O)[C@@H](CC(=O)NCc3cccc4ccccc34)S[C@@H]2c2ccc(Cl)cc2Cl)CC1
6.36 | Cc1cccc(CNC(=O)C[C@H]2S[C@H](c3ccc(Cl)cc3Cl)N(CC(=O)NCCCN3CCOCC3)C2=O)c1C
6.40 | Cc1c(Cl)cccc1CNC(=O)C[C@H]1S[C@H](c2ccc(Cl)cc2Cl)N(CC(=O)NCCCN2CCOCC2)C1=O
6.42 | O=C(C[C@H]1S[C@H](c2ccc(Cl)cc2Cl)N(CC(=O)NCCCCN2CCOCC2)C1=O)NCc1cccc2ccccc12
6.44 | CN(C)CCCNC(=O)CN1C(=O)[C@@H](CC(=O)NCc2cccc3ccccc23)S[C@@H]1c1ccc(Cl)cc1Cl
6.47 | O=C(C[C@H]1S[C@H](c2ccc(Cl)cc2Cl)N(CC(=O)NCCCN2CCOCC2)C1=O)NCc1csc2ccccc12
6.60 | C[C@@H](NC(=O)C[C@H]1S[C@H](c2ccc(Cl)cc2Cl)N(CC(=O)NCCCN2CCOCC2)C1=O)c1cccc2ccccc12
6.60 | C[C@@H](NC(=O)C[C@H]1S[C@H](c2ccc(Cl)cc2Cl)N(CC(=O)NCCCN2CCOCC2)C1=O)c1ccccc1 (stereo in doubt; 89)
